From patent US10561846B2 (priority 2000, dated 2020)
Read-outs that look alike come from different tables or passages of the source.

Tests used:
[1] = system: human macrophage cultures; experiment: TNF release from LPS-stimulated human macrophage cultures (TNF ELISA); assay type: cell-based; conditions: for EC50: Macrophage, human macrophages, LPS 100 ng/ml 4 h, n=9, read-out: E.C.50, effective concentration that inhibited 50% of the TNF response
TNF mRNA = experiment: RNase protection assay of TNF mRNA in LPS-stimulated macrophages; assay type: cell-based, human; conditions: agonist 100 µM, 5 min before 2 hour LPS 100 ng/ml (FIG. 2)
[2] = system: nicotinic or muscarinic acetylcholine receptors
TNF = TNF immunohistochemistry of cell-associated TNF in human macrophage cultures; assay type: cell-based; conditions: ACh 100 µM, 5 min before LPS 100 ng/ml, fixed after 2 hours (FIG. 3)
Description: TNF immunohistochemistry was performed as follows. Human macrophages were differentiated as described above, and grown on glass chamber slides (Nunc, Naperville, Ill.). Slides were incubated in a blocking solution (1% BSA, 5% normal goat serum, 0.3% Triton X-100 in PBS) for 1 hour at room temperature and then incubated for 24 hours at 4° C. with a primary mouse anti-human TNF monoclonal antibody (Genzyme, Cambridge, Mass.) diluted 1:100 in PBS containing 0.3% Triton X-100, 0.1% BSA, and 3% normal goat serum. Washed sections were incubated for 2 hours with secondary biotinylated anti-mouse IgG (1:200, Vector Laboratories, Inc., Burlingame, Calif.). The reaction product was visualized with 0.003% hydrogen peroxide and 0.05% 3,3′-diaminobenzidine tetrahydrochloride as a chromogen. Negative controls were incubated in the absence of primary antibodies (not shown). Slides were analyzed on a light microscope (Olympus BX60, Japan) using a MetaMorth Imaging System (Universal Imaging Co., West Chester, Pa.).
To determine whether acetylcholine inhibited macrophage TNF synthesis or macrophage TNF release, monoclonal anti-TNF antibodies were used to label cell-associated TNF in human macrophage cultures. In those experiments (FIG. 3), cells were exposed to either ACh (100 µM), either alone or in the presence of pyridostigmine bromide (1 mM), five minutes before LPS (100 ng/ml) treatment. […]

IL-10 = IL-10 release from LPS-stimulated human macrophage cultures (ELISA); assay type: cell-based; conditions: ACh with pyridostigmine bromide 1 mM, LPS 100 ng/ml, 20 hours (FIG. 8)
Description: (§1) To assess specificity, the release of other macrophage-derived cytokines was measured in LPS-stimulated macrophage cultures treated with acetylcholine. In those experiments, human macrophage cultures were incubated with ACh at the indicated concentrations in the presence of pyridostigmine bromide (1 mM) and LPS (100 ng/ml) for 20 hours. IL-1β (FIG. 5), IL-6 (FIG. 6) and IL-10 (FIG. 8) levels were measured in media using commercially available ELISA kits (R&D Systems Inc., Minneapolis, Minn.). IL-18 (FIG. 7) levels were determined by specific ELISA (Medical & Biological Laboratories Co., Ltd., Nagoya, Japan). Each sample was analyzed in triplicate. Data are expressed as Mean.+−.SEM from 4 separate experiments using macrophages prepared from 4 separate healthy donors.

IL-18 = IL-18 release from LPS-stimulated human macrophage cultures (ELISA); assay type: cell-based; conditions: ACh with pyridostigmine bromide 1 mM, LPS 100 ng/ml, 20 hours (FIG. 7)
Description: as §1

IL-1β = IL-1β release from LPS-stimulated human macrophage cultures (ELISA); assay type: cell-based; conditions: ACh with pyridostigmine bromide 1 mM, LPS 100 ng/ml, 20 hours (FIG. 5)
Description: as §1

[3] = system: differentiated human macrophages; experiment: Acetylcholine suppression of cytokine synthesis (TNF), 'our own studies' compared with macrophage data; assay type: cell-based; conditions: printed as differentiated human macrophages, n=3, read-out: E.C.50 for inhibiting TNF
IL-6 mRNA = IL-6 mRNA levels, colorimetric microplate assay (Quantikine mRNA); assay type: cell-based, human; conditions: LPS-stimulated macrophages; n=3; LPS alone 1716
Text: (§2) The molecular mechanism of acetylcholine inhibition of IL-1β and IL-6 was investigated further by measuring gene-specific mRNA levels with biotin-labeled capture oligonucleotide probes in a calorimetric microplate assay (Quantikine mRNA, R&D Systems, Inc., Minneapolis, Minn.).

IL-1β mRNA = IL-1β mRNA levels, colorimetric microplate assay (Quantikine mRNA); assay type: cell-based, human; conditions: acetylcholine 100 nM, LPS 2 hours; n=3; LPS alone 1974
Text: as §2

macrophage cultures = experiment: MTT staining and Trypan blue exclusion of macrophage cultures treated with LPS and acetylcholine; assay type: cell-based, human; conditions: macrophage cultures treated with LPS and acetylcholine (not shown)
IL-6 = IL-6 release from LPS-stimulated human macrophage cultures (ELISA); assay type: cell-based; conditions: ACh with pyridostigmine bromide 1 mM, LPS 100 ng/ml, 20 hours (FIG. 6)
Description: as §1

[4] = system: Murine RAW 264.7 macrophage-like cells; conditions: nicotine 0.1-100 µM, 5 min before LPS 500 ng/ml, medium collected after 20 hr (FIG. 15)
Description: Experiments were performed to determine whether the inhibitory effect of cholinergic agonists on proinflammatory cytokines applied to HMG-1. Murine RAW 264.7 macrophage-like cells (American Type Culture Collection, Rockville, Md., USA) were grown in culture under DMEM supplemented with 10% fetal bovine serum and 1% glutamine. When the cells were 70-80% confluent, the medium was replaced by serum-free OPTI-MEM 1 medium. […] Culture medium was collected after 20 hr. The culture medium was concentrated with a Centricon T 10 filter, then analyzed by western blot, using an anti-HMG-1polyclonal antisera (WO 00/47104) and standard methods. Band densities were determined using a Bio-Rad Imaging densitometer.

[5] = human macrophage cultures, LPS 100 ng/ml for 4 hours (FIG. 1)
[6] = ACh with pyridostigmine bromide 1 mM

## C[C@@H]1O[C@H](C[N+](C)(C)C)C[C@H]1O [muscarine]
[1]; P<0.01 vs nicotine or acetylcholine
  EC50: 42400 nM
[1]; [5]
  inhibition of TNF release: inhibited TNF release in a dose dependent manner
TNF mRNA
  TNF mRNA levels: do not reduce LPS-stimulated TNF mRNA levels

## CN1[C@@H]2CC[C@H]1C[C@@H](OC(=O)C(CO)c1ccccc1)C2 (some centres unmarked) [atropine]
[2]; without acetylcholine (not shown)
  TNF production in vehicle-treated cultures: Neither atropine nor α-conotoxin altered TNF production

## CC(=O)OCC[N+](C)(C)C.[Cl-] [acetylcholine, acetylcholine chloride]
[2]
  inhibition of TNF release: 80%
TNF
  LPS-stimulated TNF immunoreactivity in macrophages: significantly attenuated
IL-10
  IL-10 release: does not prevent the constitutive release
IL-18
  IL-18 release: dose-dependently inhibits the release
IL-1β
  IL-1β release: dose-dependently inhibits the release
[1]; [6]
  EC50: 20.2 nM
[1]; [5]
  inhibition of TNF release: inhibited TNF release in a dose dependent manner
[1]; macrophage culture media conditioned by exposure to LPS for 20 hours (not shown)
  inhibition of TNF release: Comparable inhibition of TNF release
[3]
  EC50: 800 nM
IL-6 mRNA
  acetylcholine-treated LPS-stimulated IL-6 mRNA: 1872 attomole/ml
TNF mRNA
  TNF mRNA levels: did not decrease
IL-1β mRNA
  acetylcholine-treated LPS-stimulated IL-1β mRNA: 2128 attomole/ml
Macrophage cultures
  cytotoxicity (MTT, Trypan blue exclusion): not due to cytotoxicity
IL-6
  IL-6 release: dose-dependently inhibits the release

## C[N+](C)(C)CCOC(N)=O [carbachol]
[1]; [5]
  inhibition of TNF release: Inhibition of TNF was also observed

## CN1CCCC1c1cccnc1 (centres unmarked) [nicotine]
[4]
  HMG-1 production: inhibited HMG-1 production in a dose-dependent manner
[1]; [6]
  EC50: 8.3 nM
[1]; [5]
  inhibition of TNF release: inhibited TNF release in a dose dependent manner
TNF mRNA
  TNF mRNA levels: do not reduce LPS-stimulated TNF mRNA levels
